In the supplement of paper PMC10307832:

What was measured:
Assay in all cases: relative viability (nuclei count vs DMSO), 5 days (fraction); higher = more cells survive
Axitinib + Crizotinib = compound: CNC(=O)c1ccccc1Sc1ccc2c(/C=C/c3ccccn3)n[nH]c2c1 [Axitinib] + C[C@@H](Oc1cc(-c2cnn(C3CCNCC3)c2)cnc1N)c1c(Cl)ccc(F)c1Cl [Crizotinib] (partner 1 µM)
Method in brief: (§1)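 Lung cancer cell lines, seeded in 1536-well plates, were treated the following day by pin tool with a single drug or with five library-drug doses (not always all listed) in √10 steps on top of a fixed anchor-drug dose. Cells were fixed and nuclei stained in one step after 5 days, and nuclei were counted. Relative viability is the nuclei count for treated wells divided by that for vehicle wells, reported as medians of duplicate plates.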

[1] = compound: CC1=CC=C(C=C1)C(=O)CN2C3=C(CCCC3)SC2=N [Pifithrin_alpha] + CC(=O)c1c(C)c2cnc(Nc3ccc(N4CCNCC4)cn3)nc2n(C2CCCC2)c1=O [Palbociclib] (partner 0.5 µM)
Method in brief: as §1

Bemcentinib + Bortezomib = compound: Nc1nc(Nc2ccc3c(c2)CC[C@@H](N2CCCC2)CC3)nn1-c1cc2c(nn1)-c1ccccc1CCC2 [Bemcentinib] + CC(C)C[C@H](NC(=O)[C@H](Cc1ccccc1)NC(=O)c1cnccn1)B(O)O [Bortezomib] (partner 0.002 µM)
Method in brief: as §1

[2] = compound: CC1=CC=C(C=C1)C(=O)CN2C3=C(CCCC3)SC2=N [Pifithrin_alpha] + N=C(N)NC(=N)NCCc1ccccc1 [Phenformin] (partner 250 µM)
Method in brief: as §1

Cell Line	relative viability (Axitinib + Crizotinib; first compound 0.005 µM)	relative viability (Axitinib + Crizotinib; first compound 0.01581 µM)	relative viability (Axitinib + Crizotinib; first compound 0.05 µM)	relative viability (Axitinib + Crizotinib; first compound 0.1581 µM)	relative viability (Axitinib + Crizotinib; first compound 0.5 µM)	relative viability ([1]; first compound 1 µM)	relative viability ([1]; first compound 3.162 µM)	relative viability ([1]; first compound 10 µM)	relative viability ([1]; first compound 31.62 µM)	relative viability ([1]; first compound 100 µM)	relative viability (Bemcentinib + Bortezomib; first compound 0.04 µM)	relative viability (Bemcentinib + Bortezomib; first compound 0.1265 µM)	relative viability (Bemcentinib + Bortezomib; first compound 0.4 µM)	relative viability (Bemcentinib + Bortezomib; first compound 1.265 µM)	relative viability (Bemcentinib + Bortezomib; first compound 4 µM)	relative viability ([2]; first compound 1 µM)	relative viability ([2]; first compound 3.162 µM)	relative viability ([2]; first compound 10 µM)	relative viability ([2]; first compound 100 µM)	relative viability ([2]; first compound 31.62 µM)
NCI-H2023	0.699	0.786	0.651	0.73	0.684	0.388	0.327	0.365	0.227	0.184	0.938	1.03	1.04	1.15	1.12	0.521	0.485	0.456	0.389	–
HOP-62	0.941	1.1	0.93	0.981	0.929	0.45	0.483	0.396	0.335	0.52	0.753	0.822	–	0.779	0.736	0.601	0.903	0.749	0.81	0.59
NCI-H441	0.69	0.797	0.654	0.794	0.853	0.203	0.249	0.217	–	0.19	0.923	0.689	0.455	0.407	0.507	0.893	0.988	1.15	0.994	–
LC-2-ad	0.404	0.483	0.496	0.424	0.597	0.514	0.503	0.51	0.375	0.432	1	1.01	1.11	0.968	0.982	–	0.601	0.646	0.588	–
NCI-H838	0.852	0.945	0.874	0.886	0.953	0.192	0.189	0.203	0.188	0.183	1.01	0.748	0.986	0.763	0.834	0.548	0.514	0.554	0.444	0.412
CAL-12T	0.675	0.75	0.529	0.834	0.537	0.364	0.308	0.436	–	0.238	0.977	0.936	0.953	0.736	0.908	0.604	0.558	0.533	0.457	–
EPLC-272H	0.893	0.989	0.76	0.986	0.937	–	0.322	0.334	0.315	0.351	–	1	0.91	0.79	0.876	0.266	0.305	0.364	0.222	0.246
